Common to all, as to assay type: in vivo
Test [1] has as its system Alopecurus myosuroides (ALOMY). Nature of the test: Pre-emergence biological efficacy, glasshouse pot test. The following applies: 312 h, pre-emergence, rate 1,000 g/ha, evaluated after 13 days (100=total damage to plant; 0=no damage), read-out: Percentage damage caused to weed species, ALOMY. The gist of the method: (§1)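 Compound was applied as a spray one day after sowing, at a final dose of 1000 or 250 g/ha. Plants grew under 14 h light, 24/16 °C and 65% humidity, and injury was assessed on day 13 on a 0–100 scale.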

Test [2] deals with Amaranthus retoflexus (AMARE). Described as above. The following applies: Amaranthus retroflexus, 312 h; pre-emergence, rate 1,000 g/ha, evaluated after 13 days (100=total damage to plant; 0=no damage); read-out: Percentage damage caused to weed species, AMARE. Put shortly: as §1
Test [3] relates to Echinochloa crus-galli (ECHCG). The description is as above. The following applies: 312 h, pre-emergence, rate 1,000 g/ha, evaluated after 13 days (100=total damage to plant; 0=no damage), read-out: Percentage damage caused to weed species, ECHCG. Put shortly:
as §1

In test [4] the test system is Ipomea hederaceae (IPOHE). Described as above. As to conditions: Ipomoea hederacea, 312 h; pre-emergence, rate 1,000 g/ha, evaluated after 13 days (100=total damage to plant; 0=no damage); read-out: Percentage damage caused to weed species, IPOHE. Put shortly:
as §1

The subject of test [5] is Setaria faberi (SETFA). The test is described as above. The following applies: 312 h, pre-emergence, rate 1,000 g/ha, evaluated after 13 days (100=total damage to plant; 0=no damage), read-out: Percentage damage caused to weed species, SETFA. The gist of the method:
as §1

Test [6] relates to Solanum nigrum (SOLNI). The test is described as above. The following applies: 312 h, pre-emergence, rate 1,000 g/ha, evaluated after 13 days (100=total damage to plant; 0=no damage), read-out: Percentage damage caused to weed species, SOLNI. The gist of the method: as §1
Test [7] concerns Alopecurus myosuroides (ALOMY). The experiment in a line: Post-emergence biological efficacy, glasshouse pot test. The following applies: 312 h, Rate 1,000 g/ha, post-emergence spray, evaluated after 13 days (100=total damage to plant; 0=no damage to plant), read-out: Percentage damage caused to weed species, post-emergence, ALOMY. The gist of the method:
(§2)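 Plants were sown in standard soil and grown 8 days in a glasshouse (24/16° C. day/night, 14 hours light, 65% humidity), then sprayed post-emergence at 1000 or 250 g/ha from acetone/water (50:50) with 0.5% Tween 20. Damage was scored visually after 13 days (0 = none, 100 = total).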

For test [8], the system named is Amaranthus retoflexus (AMARE). The description is as above. As to conditions: Amaranthus retroflexus, 312 h; Rate 1,000 g/ha; post-emergence spray; evaluated after 13 days (100=total damage to plant; 0=no damage to plant); read-out: Percentage damage caused to weed species, post-emergence, AMARE. The gist of the method:
as §2

Test [9] relates to Echinochloa crus-galli (ECHCG). The description is as above. The following applies: 312 h, Rate 1,000 g/ha, post-emergence spray, evaluated after 13 days (100=total damage to plant; 0=no damage to plant), read-out: Percentage damage caused to weed species, post-emergence, ECHCG. The gist of the method:
as §2

Test [10] has as its system Ipomea hederaceae (IPOHE). The test is described as above. As to conditions: Ipomoea hederacea, 312 h; Rate 1,000 g/ha; post-emergence spray; evaluated after 13 days (100=total damage to plant; 0=no damage to plant); read-out: Percentage damage caused to weed species, post-emergence, IPOHE. Put shortly:
as §2

Test [11] concerns Setaria faberi (SETFA). The description is as above. As to conditions: 312 h, Rate 1,000 g/ha, post-emergence spray, evaluated after 13 days (100=total damage to plant; 0=no damage to plant), read-out: Percentage damage caused to weed species, post-emergence, SETFA. Put shortly:
as §2

The test system of test [12] is Solanum nigrum (SOLNI). Described as above. The following applies: 312 h, Rate 1,000 g/ha, post-emergence spray, evaluated after 13 days (100=total damage to plant; 0=no damage to plant), read-out: Percentage damage caused to weed species, post-emergence, SOLNI. The gist of the method:
as §2

Molecules are shown by their SMILES.

As to `C=Cc1ccc(-c2c(NCc3ccco3)nc(C3CC3)nc2C(=O)OC)cc1` [Compound 187-125, 2-Cyclopropyl-5-(4-ethenylphenyl)-4-(furan-2-ylmethylamino)-6-methoxycarbonyl-pyrimidine], the pest or weed control at 1000 g/ha (in test [1]; in [2]; in test [3]; in test [4]; in the test on Setaria faberi (SETFA) [5]; with Solanum nigrum (SOLNI) [6]) was 0% each time. For the same compound, the pest or weed control at 1000 g/ha in [7] was 0%; in [8] it was 70%; in test [9], 0%; in [10] it was 40%; in the test on Setaria faberi (SETFA) [11] it was 0%; in the test with Solanum nigrum (SOLNI) [12], 50%.
Turning to `CC(C)OC(=O)c1nc(C2CC2)nc(NCc2ccco2)c1Cl` [Compound 197-125, 5-Chloro-2-cyclo-propyl-4-(2-furanylmethyl-amino)-6-iso-propoxycarbonyl-pyrimidine], the pest or weed control at 1000 g/ha stood at 50% in [1]; 100% in [2]; 70% in test [3]; 100% in test [4]; 70% in the test on Setaria faberi (SETFA) [5]; 90% with Solanum nigrum (SOLNI) [6]. The pest or weed control at 1000 g/ha in test [7] worked out at 50%; in [8], 100%; in test [9], 70%; in test [10], 100%; in the test with Setaria faberi (SETFA) [11], 100%; in the test on Solanum nigrum (SOLNI) [12], 100%.
In the case of `CCCOC(=O)c1nc(C2CC2)nc(NCc2ccco2)c1Cl` [Compound 198-125, 5-chloro-2-cyclopropyl-4-[(furan-2-ylmethyl)-amino]-6-^npropoxycarbonylpyrimidine], the pest or weed control at 1000 g/ha in [1] was determined as 40%; in [2] it was 100%; in [3], 80%; in [4], 100%; with Setaria faberi (SETFA) [5], 80%; in the test on Solanum nigrum (SOLNI) [6] it was 100%. Further, the pest or weed control at 1000 g/ha in test [7] came out at 40%; in test [8] it was 100%; in [9] it was 80%; in test [10] it was 100%; with Setaria faberi (SETFA) [11], 90%; in the test on Solanum nigrum (SOLNI) [12] it was 90%.
With `CC(C)COC(=O)c1nc(C2CC2)nc(NCc2ccco2)c1Cl` [Compound 199-125, 5-Chloro-2-cyclopropyl-4-(2-furanylmethyl-amino)-6-iso-butoxycarbonyl-pyrimidine], the pest or weed control at 1000 g/ha in [1] came to 40%; in [2], 100%; in [3], 50%; in test [4], 100%; with Setaria faberi (SETFA) [5], 80%; in the test with Solanum nigrum (SOLNI) [6], 100%. Further, the pest or weed control at 1000 g/ha in [7] came out at 20%; in test [8], 100%; in test [9], 70%; in [10], 100%; in the test with Setaria faberi (SETFA) [11] it was 70%; in the test with Solanum nigrum (SOLNI) [12] it was 80%.
For the compound `O=C(OCc1ccccc1)c1nc(C2CC2)nc(NCc2ccco2)c1Cl` [Compound 200-125], the pest or weed control at 1000 g/ha stood at 50% in test [1]; 100% in test [2]; 70% in test [3]; 100% in test [4]; 70% in the test with Setaria faberi (SETFA) [5]; 100% in the test on Solanum nigrum (SOLNI) [6]. Further, the pest or weed control at 1000 g/ha in [7] turned out to be 30%; in [8] it was 100%; in test [9] it was 70%; in test [10], 90%; with Setaria faberi (SETFA) [11], 80%; in the test with Solanum nigrum (SOLNI) [12] it was 90%.
Regarding `COC(=O)c1nc(Cl)nc(NC2CC2)c1Cl` [Compound 207-30, 4-Cyclopropylamino-2,5-dichloro-6-methoxycarbonyl-pyrimidine], the pest or weed control at 1000 g/ha (in test [1]; in test [2]; in test [3]; in test [4]; with Setaria faberi (SETFA) [5]; with Solanum nigrum (SOLNI) [6]) was 0% throughout. The pest or weed control at 1000 g/ha amounted to 10% in test [7]; 0% in test [8]; 0% in test [9]; 20% in test [10]; 0% with Setaria faberi (SETFA) [11]; 10% with Solanum nigrum (SOLNI) [12].
For `COC(=O)c1nc(Cl)nc(NCC2CC2)c1Cl` [Compound 207-31, 4-Cyclopropylmethyl-amino-2,5-dichloro-6-methoxycarbonyl-pyrimidine], the pest or weed control at 1000 g/ha is 0% in [1]; 20% in test [2]; 0% in test [3]; 0% in [4]; 0% with Setaria faberi (SETFA) [5]; 10% with Solanum nigrum (SOLNI) [6]. The pest or weed control at 1000 g/ha in test [7] amounted to 10%; in test [8], 50%; in test [9], 0%; in test [10] it was 10%; in the test on Setaria faberi (SETFA) [11], 40%; with Solanum nigrum (SOLNI) [12], 60%.
In the case of `COC(=O)c1nc(Cl)nc(NCc2ccccc2)c1Cl` [Compound 207-35, 2,5-Dichloro-6-methoxycarbonyl-4-phenylmethylamino-pyrimidine], the pest or weed control at 1000 g/ha in test [1] was 10%; in test [2] it was 30%; in test [3], 10%; in test [4], 10%; in the test with Setaria faberi (SETFA) [5] it was 0%; with Solanum nigrum (SOLNI) [6], 0%. In addition, the pest or weed control at 1000 g/ha in test [7] worked out at 30%; in [8], 50%; in test [9], 20%; in test [10], 10%; with Setaria faberi (SETFA) [11], 30%; in the test with Solanum nigrum (SOLNI) [12], 60%.
As for `COC(=O)c1nc(Cl)nc(NCc2ccc(C)o2)c1Cl` [Compound 207-50, 2,5-Dichloro-6-methoxycarbonyl-4-(5-methylfuran-2-ylmethylamino)-pyrimidine], the pest or weed control at 1000 g/ha in test [1] was determined as 0%; in test [2] it was 60%; in test [3] it was 0%; in test [4], 40%; in the test with Setaria faberi (SETFA) [5] it was 0%; in the test on Solanum nigrum (SOLNI) [6], 80%. The pest or weed control at 1000 g/ha in test [7] turned out to be 0%; in [8], 40%; in [9] it was 0%; in test [10] it was 70%; in the test with Setaria faberi (SETFA) [11], 0%; in the test with Solanum nigrum (SOLNI) [12] it was 80%.

The values above are taken from patent publication US20110086759A1, “CHEMICAL COMPOUNDS” (SYNGENTA CROP PROTECTION, INC., priority 2007, published 2011).
